Among the data in patent US8450332B2, “LIMK2 inhibitors, compositions comprising them, and methods of their use” (Lexicon Pharmaceuticals, Inc., priority 2008, dated 2013) are IC50 values, retold here.

The target of the test is T1, LIMK2 (Homo sapiens, UniProt P53671).
T1 construct: His tag (histidine-tagged; pFastBacHT vector); made in house; host or cells: Sf9 insect cells (BAC-to-BAC baculovirus system)
T1 sequence (P53671 whole entry): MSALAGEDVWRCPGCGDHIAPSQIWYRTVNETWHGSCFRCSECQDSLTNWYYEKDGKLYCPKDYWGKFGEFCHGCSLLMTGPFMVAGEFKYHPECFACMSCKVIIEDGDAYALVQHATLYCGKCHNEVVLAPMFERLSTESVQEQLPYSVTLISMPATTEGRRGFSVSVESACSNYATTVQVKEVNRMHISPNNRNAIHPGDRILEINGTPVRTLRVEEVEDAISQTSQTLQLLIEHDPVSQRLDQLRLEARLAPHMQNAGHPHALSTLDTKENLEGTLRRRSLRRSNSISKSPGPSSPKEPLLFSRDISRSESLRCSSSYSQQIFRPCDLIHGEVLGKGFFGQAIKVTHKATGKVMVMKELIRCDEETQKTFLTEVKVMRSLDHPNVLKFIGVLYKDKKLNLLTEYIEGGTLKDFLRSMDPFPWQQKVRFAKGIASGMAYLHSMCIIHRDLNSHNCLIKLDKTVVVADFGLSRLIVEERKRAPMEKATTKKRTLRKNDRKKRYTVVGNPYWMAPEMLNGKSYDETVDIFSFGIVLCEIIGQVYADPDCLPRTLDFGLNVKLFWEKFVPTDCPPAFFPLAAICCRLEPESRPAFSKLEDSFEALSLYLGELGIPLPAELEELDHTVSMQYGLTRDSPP
Description: In vitro LIMK2 inhibition assay (33P incorporation into myelin basic protein flash plates). It is filed as biochemical. As to the method: Using the procedures described herein and methods known in the art, the additional compounds listed below in Table 1 were prepared. The LIMK2 IC50 data that is provided below for some of the compounds was determined using the assay described in Example 32.
An in vitro assay used to identify LIMK2 inhibitors was developed. The analytical readout was the incorporation of ^33P from ATP substrate into immobilized myelin basic protein coated flash plates (Perkin Elmer Biosciences), which were counted on a scintillation counter equipped with a plate reader (TopCount, Packard Bioscience, Meriden, Conn.). Using 384 well flat MBP flashplates, total assay volume was 50 μl. The HTS program utilized a Biomek FX for dilution.
For each assay, the ingredients and conditions were as follows: 200 ng of enzyme was incubated in assay buffer (1× assay buffer contains 30 mM HEPES (pH 8.0), 5 mM DTT, and 10 mM MgCl2), 10 μM ATP, 0.2 μCi [gamma-^33P]-ATP and 10 μM of potential inhibitory compound. The reaction was incubated at room temperature for 60 minutes, washed 3 times with 75 μl of stop/wash buffer (1× stop/was buffer contains 50 mM EDTA and 20 mM Tris (pH 7.4)), and then the plates were read on the scintillation counter. Different concentrations of staurosporine (400 nM, 200 nM, 100 nM and 50 nM; purchased from BIOMOL (Plymouth Meeting, Pa.)) were used as controls on each plate.
For `Cc1cccc(NC(=O)C2(CN)CCN(c3ncnc4[nH]cc(C)c34)CC2)c1` [4-(aminomethyl)-1-(5-methyl-7H-pyrrolo[2,3-d]pyrimidin-4-yl)-N-m-tolylpiperidine-4-carboxamide], the IC50 (commonly the concentration needed to halve the response being measured) was less than 250 nM. As for `Cc1c[nH]c2ncnc(N3CCC(CN)(C(=O)Nc4ccc5nc(N(C)C)oc5c4)CC3)c12` [4-(aminomethyl)-N-(2-(dimethylamino)benzo[d]oxazol-6-yl)-1-(5-methyl-7H-pyrrolo[2,3-d]pyrimidin-4-yl)piperidine-4-carboxamide], the figure is less than 500 nM; as for `Cc1c[nH]c2ncnc(N3CCC(CN)(C(=O)Nc4cccc(OCC(=O)N(C)C)c4)CC3)c12` [4-(aminomethyl)-N-(3-(2-(dimethylamino)-2-oxoethoxy)phenyl)-1-(5-methyl-7H-pyrrolo[2,3-d]pyrimidin-4-yl)piperidine-4-carboxamide], less than 250 nM; as for `COCCOc1cccc(NC(=O)C2(CN)CCN(c3ncnc4[nH]cc(C)c34)CC2)c1` [4-(aminomethyl)-N-(3-(2-methoxyethoxy)phenyl)-1-(5-methyl-7H-pyrrolo[2,3-d]pyrimidin-4-yl)piperidine-4-carboxamide], less than 250 nM. For the compound `Cc1c[nH]c2ncnc(N3CCC(CN)(C(=O)Nc4cccc(C(=O)N(C)C)c4)CC3)c12` [4-(aminomethyl)-N-(3-(dimethylcarbamoyl)phenyl)-1-(5-methyl-7H-pyrrolo[2,3-d]pyrimidin-4-yl)piperidine-4-carboxamide], the concentration for half-maximal inhibition (IC50) is less than 250 nM.

With `Cc1c[nH]c2ncnc(N3CCC(CN)(C(=O)Nc4cccc(C(=O)NC(C)C)c4)CC3)c12` [4-(aminomethyl)-N-(3-(isopropylcarbamoyl)phenyl)-1-(5-methyl-7H-pyrrolo[2,3-d]pyrimidin-4-yl)piperidine-4-carboxamide], the IC50 was less than 250 nM. Compound `Cc1c[nH]c2ncnc(N3CCC(CN)(C(=O)Nc4cccc(Br)c4)CC3)c12` [4-(aminomethyl)-N-(3-bromophenyl)-1-(5-methyl-7H-pyrrolo[2,3-d]pyrimidin-4-yl)piperidine-4-carboxamide] gave an IC50 of less than 250 nM.

The compound `Cc1c[nH]c2ncnc(N3CCC(CN)(C(=O)Nc4cccc(Cl)c4)CC3)c12` [4-(aminomethyl)-N-(3-chlorophenyl)-1-(5-methyl-7H-pyrrolo[2,3-d]pyrimidin-4-yl)piperidine-4-carboxamide] registered an IC50 of less than 250 nM. On to `Cc1c[nH]c2ncnc(N3CCC(CN)(C(=O)Nc4cccc(C#N)c4)CC3)c12` [4-(aminomethyl)-N-(3-cyanophenyl)-1-(5-methyl-7H-pyrrolo[2,3-d]pyrimidin-4-yl)piperidine-4-carboxamide], for which the IC50 was less than 250 nM. As for `Cc1c[nH]c2ncnc(N3CCC(CN)(C(=O)Nc4cccc(F)c4)CC3)c12` [4-(aminomethyl)-N-(3-fluorophenyl)-1-(5-methyl-7H-pyrrolo[2,3-d]pyrimidin-4-yl)piperidine-4-carboxamide], the IC50 is less than 250 nM. Consider `Cc1c[nH]c2ncnc(N3CCC(CN)(C(=O)Nc4cccc(O)c4)CC3)c12` [4-(aminomethyl)-N-(3-hydroxyphenyl)-1-(5-methyl-7H-pyrrolo[2,3-d]pyrimidin-4-yl)piperidine-4-carboxamide], for which the half-inhibitory concentration (IC50) was less than 250 nM. In turn, `Cc1c[nH]c2ncnc(N3CCC(CN)(C(=O)Nc4cccc(OC(C)C)c4)CC3)c12` [4-(aminomethyl)-N-(3-isopropoxyphenyl)-1-(5-methyl-7H-pyrrolo[2,3-d]pyrimidin-4-yl)piperidine-4-carboxamide] registered an IC50 of less than 250 nM. Turning to `COc1cccc(NC(=O)C2(CN)CCN(c3ncnc4[nH]cc(C)c34)CC2)c1` [4-(aminomethyl)-N-(3-methoxyphenyl)-1-(5-methyl-7H-pyrrolo[2,3-d]pyrimidin-4-yl)piperidine-4-carboxamide], the IC50 is less than 250 nM.

`Cc1c[nH]c2ncnc(N3CCC(CN)(C(=O)Nc4cccc(C(C)(C)C)c4)CC3)c12` [4-(aminomethyl)-N-(3-tert-butylphenyl)-1-(5-methyl-7H-pyrrolo[2,3-d]pyrimidin-4-yl)piperidine-4-carboxamide] showed an IC50 of less than 250 nM. The compound `C=CCC1(C(=O)Nc2cccc(Oc3ccc(F)cc3)c2)CCN(c2ncnc3[nH]cc(C)c23)CC1` [4-allyl-N-(3-(4-fluorophenoxy)phenyl)-1-(5-methyl-7H-pyrrolo[2,3-d]pyrimidin-4-yl)piperidine-4-carboxamide] showed a half-maximal inhibitory concentration (IC50) of less than 250 nM. As for `C=CCC1(C(=O)Nc2cccc(Br)c2)CCN(c2ncnc3[nH]cc(C)c23)CC1` [4-allyl-N-(3-bromophenyl)-1-(5-methyl-7H-pyrrolo[2,3-d]pyrimidin-4-yl)piperidine-4-carboxamide], the figure is less than 250 nM; as for `C=CCC1(C(=O)Nc2cccc(F)c2)CCN(c2ncnc3[nH]cc(C)c23)CC1` [4-allyl-N-(3-fluorophenyl)-1-(5-methyl-7H-pyrrolo[2,3-d]pyrimidin-4-yl)piperidine-4-carboxamide], less than 250 nM; as for `C=CCC1(C(=O)Nc2cccc(OC)c2)CCN(c2ncnc3[nH]cc(C)c23)CC1` [4-allyl-N-(3-methoxyphenyl)-1-(5-methyl-7H-pyrrolo[2,3-d]pyrimidin-4-yl)piperidine-4-carboxamide], less than 250 nM. With `C=CCC1(C(=O)Nc2cccc(C(C)(C)C)c2)CCN(c2ncnc3[nH]cc(C)c23)CC1` [4-allyl-N-(3-tert-butylphenyl)-1-(5-methyl-7H-pyrrolo[2,3-d]pyrimidin-4-yl)piperidine-4-carboxamide] the figure was less than 250 nM; with `Cc1c[nH]c2ncnc(N3CCC(C)(C(=O)Nc4cccc(C(F)(F)F)c4)CC3)c12` [4-methyl-1-(5-methyl-7H-pyrrolo[2,3-d]pyrimidin-4-yl) N-(3-(trifluoromethyl)phenyl)piperidine-4-carboxamide], less than 250 nM; with `Cc1c[nH]c2ncnc(N3CCC(C)(C(=O)Nc4cccc(S(=O)(=O)N5CCOCC5)c4)CC3)c12` [4-methyl-1-(5-methyl-7H-pyrrolo[2,3-d]pyrimidin-4-yl)-N-(3-(morpholinosulfonyl)phenyl)piperidine-4-carboxamide], less than 250 nM.

As to `Cc1cccc(NC(=O)C2(C)CCN(c3ncnc4[nH]cc(C)c34)CC2)c1` [4-methyl-1-(5-methyl-7H-pyrrolo[2,3-d]pyrimidin-4-yl)-N-m-tolylpiperidine-4-carboxamide], the IC50 was less than 250 nM. As for `Cc1c[nH]c2ncnc(N3CCC(C)(C(=O)Nc4ccccc4)CC3)c12` [4-methyl-1-(5-methyl-7H-pyrrolo[2,3-d]pyrimidin-4-yl)-N-phenylpiperidine-4-carboxamide], the figure is less than 250 nM. In turn, `Cc1c[nH]c2ncnc(N3CCC(CNC(=O)[C@@H](N)CCCN)(C(=O)Nc4cccc(OC(=O)N(C)C)c4)CC3)c12` [(S)-3-(4-((2,5-diaminopentanamido)methyl)-1-(5-methyl-7H-pyrrolo[2,3-d]pyrimidin-4-yl)piperidine-4-carboxamido)phenyl dimethylcarbamate] yielded an IC50 of less than 250 nM. With `Cc1c[nH]c2ncnc(N3CCC(CNC(=O)[C@@H](N)Cc4c[nH]cn4)(C(=O)Nc4cccc(OC(=O)N(C)C)c4)CC3)c12` [(S)-3-(4-((2-amino-3-(1H-imidazol-4-yl)propanamido)methyl)-1-(5-methyl-7H-pyrrolo[2,3-d]pyrimidin-4-yl)piperidine-4-carboxamido)phenyl dimethylcarbamate], the IC50 was less than 250 nM.

Compound `Cc1c[nH]c2ncnc(N3CCC(CNC(=O)[C@@H](N)CO)(C(=O)Nc4cccc(OC(=O)N(C)C)c4)CC3)c12` [(S)-3-(4-((2-amino-3-hydroxypropanamido)methyl)-1-(5-methyl-7H-pyrrolo[2,3-d]pyrimidin-4-yl)piperidine-4-carboxamido)phenyl dimethylcarbamate] returned an IC50 of less than 250 nM. With `Cc1c[nH]c2ncnc(N3CCC(C)(C(=O)Nc4cccc(CC(=O)N(C)C)c4)CC3)c12` [N-(3-(2-(dimethylamino)-2-oxoethyl)phenyl)-4-methyl-1-(5-methyl-7H-pyrrolo[2,3-d]pyrimidin-4-yl)piperidine-4-carboxamide] the figure was less than 250 nM; with `Cc1c[nH]c2ncnc(N3CCC(C)(C(=O)Nc4cccc(Oc5ccc(F)cc5)c4)CC3)c12` [N-(3-(4-fluorophenoxy)phenyl)-4-methyl-1-(5-methyl-7H-pyrrolo[2,3-d]pyrimidin-4-yl)piperidine-4-carboxamide], less than 250 nM; with `Cc1c[nH]c2ncnc(N3CCC(C)(C(=O)Nc4cccc(S(=O)(=O)NC(C)C)c4)CC3)c12` [N-(3-(N-isopropylsulfamoyl)phenyl)-4-methyl-1-(5-methyl-7H-pyrrolo[2,3-d]pyrimidin-4-yl)piperidine-4-carboxamide], less than 250 nM. Compound `Cc1c[nH]c2ncnc(N3CCC(C)(C(=O)Nc4ccc(F)c(Br)c4)CC3)c12` [N-(3-bromo-4-fluorophenyl)-4-methyl-1-(5-methyl-7H-pyrrolo[2,3-d]pyrimidin-4-yl)piperidine-4-carboxamide] had an IC50 of less than 250 nM. With `CC1(C(=O)Nc2cccc(Br)c2)CCN(c2ncnc3[nH]cc(Cl)c23)CC1` [N-(3-bromophenyl)-1-(5-chloro-7H-pyrrolo[2,3-d]pyrimidin-4-yl)-4-methylpiperidine-4-carboxamide] the figure was less than 250 nM.
